Where two headings read alike, the source gives them in different places.
Assays:
[1] = Clinical Case Example #2: regulating blood glucose levels, body weight, tolerability; assay type: in vivo, human; details: within just a few days of using, person with type-2 diabetes on metformin
Protocol: Clinical Case Example #2: The therapeutic composition (i.e. fenugreek formulation) used in Clinical Case Example #1 above was also tested for efficacy on regulating blood glucose levels. The subject was a person, height of 5 feet 6 inches and with baseline a body weight of about 175 lbs. Despite long-term management of their type-2 diabetes with metformin, they still had blood glucose readings almost continuously in the low to high 200s mg/dL (e.g. 204, 228, 277) with hemoglobin A1C of 7.2%. A typical fasting blood sugar for them was 189.
Due to consistently high blood glucose levels, their endocrinologist prescribed Januvia (sitagliptin, a dipeptidyl peptidase-4 (DPP-4) inhibitor). […]
When sufficiently recovered from the pancreatitis, they started using the fenugreek formulation of this invention (combination of fenugreek, curcumin, and chromium picolinate) while they continued taking metformin. Within a few days of starting the fenugreek formulation, their blood glucose readings declined from well over 200 for most of the day, to around 180, with excursions into the mid-200s only after high-sugar meals (whereas prior to this regimen, their blood glucose was in the 200s at a steady state). Occasionally, while on the fenugreek formulation regimen, they had blood glucose readings down to 110. This was the first time in half a decade that the subject had readings as low as 110. […]

[2] = cited from earlier work
[3] = target: dipeptidyl-peptidase 4 (DPP4) (Homo sapiens, UniProt P27487); details: cited from earlier work
Sequence of dipeptidyl-peptidase 4 (DPP4) (P27487 whole entry, species assumed): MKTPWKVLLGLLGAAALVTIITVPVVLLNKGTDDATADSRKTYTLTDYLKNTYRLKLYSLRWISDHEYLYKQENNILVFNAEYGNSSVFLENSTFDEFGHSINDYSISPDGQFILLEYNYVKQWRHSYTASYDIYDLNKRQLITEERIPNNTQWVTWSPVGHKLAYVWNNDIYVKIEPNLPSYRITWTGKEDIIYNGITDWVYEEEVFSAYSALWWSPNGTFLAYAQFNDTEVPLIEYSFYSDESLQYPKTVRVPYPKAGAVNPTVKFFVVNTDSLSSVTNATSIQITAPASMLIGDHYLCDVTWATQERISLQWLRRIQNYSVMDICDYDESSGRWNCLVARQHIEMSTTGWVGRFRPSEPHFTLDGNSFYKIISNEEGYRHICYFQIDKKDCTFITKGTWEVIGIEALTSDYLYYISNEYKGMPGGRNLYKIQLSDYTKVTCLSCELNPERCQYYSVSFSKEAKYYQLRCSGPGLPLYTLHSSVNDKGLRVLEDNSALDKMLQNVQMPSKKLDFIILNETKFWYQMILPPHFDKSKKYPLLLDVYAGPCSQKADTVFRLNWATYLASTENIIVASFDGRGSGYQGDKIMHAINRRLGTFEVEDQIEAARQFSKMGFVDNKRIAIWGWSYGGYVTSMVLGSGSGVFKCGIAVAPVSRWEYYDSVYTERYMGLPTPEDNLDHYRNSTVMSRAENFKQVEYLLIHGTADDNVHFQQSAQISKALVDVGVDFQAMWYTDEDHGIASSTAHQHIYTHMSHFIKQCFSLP

## N[C@@H](CC(=O)N1CCn2c(nnc2C(F)(F)F)C1)Cc1cc(F)c(F)cc1F [Januvia, sitagliptin]
[1]
  adverse events: diarrhea and signs of acute pancreatitis

## [Cr] [chromium]
[2]; 200-1,000 μg daily for up to two years
  safety: used safely
[2]; up to 1,000 μg daily for up to six months
  safety: used safely

## COc1cc(/C=C/C(=O)CC(=O)/C=C/c2ccc(O)c(OC)c2)ccc1O [curcumin]
[3]
  action on DPP4: inhibits
